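Growth conditions: 96-well plates. Treatment: test compound, 48 hours, 5 concentrations. Analysis: linear interpolation between bracketing concentrations; unreached endpoints set to highest concentration. GI50 is the concentration that inhibits growth by half. TGI is the concentration that stops growth completely.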
Columns and labels:
Test in all cases: inhibition of tumour cell growth, NCI panel, 48 h
NCI-H522 lung = tested on: NCI-H522 lung
COLO 205 colon = tested on: COLO 205 colon
UACC-257 melanoma = tested on: UACC-257 melanoma
MDA-MB-435 = tested on: MDA-MB-435
SN12C renal = tested on: SN12C renal
OVCAR-4 ovarian = tested on: OVCAR-4 ovarian
HCT-15 colon = tested on: HCT-15 colon
A498 renal = tested on: A498 renal
CAKI-1 renal = tested on: CAKI-1 renal
NCI-H226 lung = tested on: NCI-H226 lung
MALME-3M melanoma = tested on: MALME-3M melanoma
SK-MEL-28 melanoma = tested on: SK-MEL-28 melanoma
SF-295 CNS = tested on: SF-295 CNS
NCI-H460 lung = tested on: NCI-H460 lung
K-562 leukemia = tested on: K-562 leukemia
HOP-92 NSCLC = tested on: HOP-92 NSCLC
SF-268 CNS = tested on: SF-268 CNS
SNB-19 CNS = tested on: SNB-19 CNS
IGROV1 ovarian = tested on: IGROV1 ovarian
BT-549 breast = tested on: BT-549 breast
HL-60(TB) leukemia = tested on: HL-60(TB) leukemia
M14 melanoma = tested on: M14 melanoma
LOX IMVI melanoma = tested on: LOX IMVI melanoma
MCF7 breast = tested on: MCF7 breast
TK-10 renal = tested on: TK-10 renal
786-0 renal = tested on: 786-0 renal
SNB-75 CNS = tested on: SNB-75 CNS
SK-OV-3 ovarian = tested on: SK-OV-3 ovarian

Compound `C[C@@H]1CC[C@@H]2[C@@H]1[C@H](OC(=O)c1ccc3ccccc3c1)[C@]1(C3CCCCC3)C[C@@H](OC(=O)CO)[C@@]2(C)O1` has a GI50 (NCI-H522 lung) of 10.3 µM, a TGI (NCI-H522 lung) of 24.1 µM and a GI50 (COLO 205 colon) of 11.2 µM. It also gave a TGI (COLO 205 colon) of 24.6 µM, a GI50 (UACC-257 melanoma) of 12.9 µM and a TGI (UACC-257 melanoma) of 26.3 µM. For the same compound, the GI50 (MDA-MB-435) was 14.1 µM, the TGI (MDA-MB-435) was 29.4 µM and the GI50 (SN12C renal) was 0.0525 µM. For the same compound, the TGI (SN12C renal) was 12.6 µM, the GI50 (OVCAR-4 ovarian) was 10.8 µM and the TGI (OVCAR-4 ovarian) was 24.8 µM. The GI50 (HCT-15 colon) was 7.93 µM, the TGI (HCT-15 colon) was 22.4 µM and the GI50 (A498 renal) was 0.0191 µM. For the same compound, the TGI (A498 renal) was 0.0679 µM, the GI50 (CAKI-1 renal) was 0.0391 µM and the TGI (CAKI-1 renal) was 10.9 µM. It also gave a GI50 (NCI-H226 lung) of 11.6 µM, a TGI (NCI-H226 lung) of 26.2 µM and a GI50 (MALME-3M melanoma) of 16.5 µM. The TGI (MALME-3M melanoma) was 32.3 µM, the GI50 (SK-MEL-28 melanoma) was 13.9 µM and the TGI (SK-MEL-28 melanoma) was 28.5 µM. For the same compound, the GI50 (SF-295 CNS) was 11.6 µM, the TGI (SF-295 CNS) was 25.3 µM and the GI50 (NCI-H460 lung) was 9.27 µM. For the same compound, the TGI (NCI-H460 lung) was 23.7 µM, the GI50 (K-562 leukemia) was 11.4 µM and the TGI (K-562 leukemia) was 40.9 µM. It also gave a GI50 (HOP-92 NSCLC) of 3.15 µM, a TGI (HOP-92 NSCLC) of 15.4 µM and a GI50 (SF-268 CNS) of 0.542 µM. For the same compound, the TGI (SF-268 CNS) was 19.5 µM, the GI50 (SNB-19 CNS) was 14.6 µM and the TGI (SNB-19 CNS) was 28.8 µM. It also gave a GI50 (IGROV1 ovarian) of 15.6 µM, a TGI (IGROV1 ovarian) of 32.8 µM and a GI50 (BT-549 breast) of 0.0714 µM. For the same compound, the TGI (BT-549 breast) was 1.56 µM, the GI50 (HL-60(TB) leukemia) was 9.23 µM and the TGI (HL-60(TB) leukemia) was 30.6 µM. For the same compound, the GI50 (M14 melanoma) was 13.2 µM, the TGI (M14 melanoma) was 30.2 µM and the GI50 (LOX IMVI melanoma) was 13.1 µM. For the same compound, the TGI (LOX IMVI melanoma) was 28.1 µM, the GI50 (MCF7 breast) was 3.44 µM and the TGI (MCF7 breast) was 16.5 µM. It also gave a GI50 (TK-10 renal) of 14.5 µM, a TGI (TK-10 renal) of 31.1 µM and a GI50 (786-0 renal) of 5.41 µM. For the same compound, the TGI (786-0 renal) was 20 µM, the GI50 (SNB-75 CNS) was 0.546 µM and the TGI (SNB-75 CNS) was 18.8 µM. For the same compound, the GI50 (SK-OV-3 ovarian) was 14.4 µM and the TGI (SK-OV-3 ovarian) was 29 µM.

Reference: PubChem BioAssay (NCI)
